Among the data in US12454529B2, “Piperazine cyclic ureas” (SIRONAX LTD., priority 2020, dated 2025) are EC50 values, retold here.

pEC50: −log10 of the molar value.

For the first experiment, the system named is HT-29 cells. As to the kind of experiment: HT-29 cell necrosis/necroptosis inhibition (TNF-α + SMAC mimetic + zVAD-FMK; CellTiter-Glo cell viability). It counts as cell-based. The settings on record: Homo sapiens; HT-29 cells, TNF-α 10 ng/ml + SMAC mimetic 6 μM + zVAD-FMK 10 μM, 20 hours; geometric mean, 10 points in duplicate; read-out: EC50 (Cell activity; Necrosis/Necroptosis Inhibitory Activity, Compounds 1-142). On the procedure:
Compounds 1-319 (denoted as Compound Nos. 1 through 319 in Table 3 and 4) of the disclosure were tested for binding and cellular RIP1 inhibitory activity following the experimental procedures described below.
• Cell line: HT-29 (ATCC® HTB-38™) • Culture medium: McCOY's 5A, Gibco, Cat No. 16600-082 • FBS, Gibco, Cat No. 10099-141C • Trypsin: Gibco, Cat No. 25200-056 • DMSO: Sigma, Cat No. 67-68-5, 1L • Assay plate: Corning #3903 • Compound dilution plate: Corning #3357 • Inducers: TNFα, GenScript, Cat No. Z01001-50, • SmacM, Cat. No., HY-15989, MedChemExpress (MCE) • Z_VAD FMK, TargetMol, T6013 • Cell Titer-Glo® Luminescent Cell Viability Assay Kit: Promega, Cat No. G7573 • EnVision: PerkinElmer, 2105-0010 Methods Cell Seeding
1. HT-29 cells were checked every day to make sure that they were healthy and growing as expected. They were subjected to sub-culturing when they were approximately 80% confluent.
2. The culture medium, McCOY's 5A medium (Gibco, Cat No. 16600-082) with 10% fetal bovine serum or FBS (Gibco, Cat No. 10099-141C), was pre-warmed in a 37° C. water bath for at least 30 min.
3. When the cells had reached a desired level of confluency of 80% in a T75 flask, the medium was aspirated, and the cells were washed with warm phosphate buffered saline or PBS two times.
4. 2-3 ml fresh warm trypsin (Gibco, Cat No. 25200-056) solution was added to the washed cells. The flask with the cells was transferred to a 37° C. incubator.
5. After 5 minutes, the side of the flask was tapped, and the flask was examined under a microscope for detachment of the cells to the flask. If necessary, the cells were kept in the incubator for an additional 5-10 minutes, with occasional tapping, until lifting was complete.
6. The trypsin reaction was neutralized by transferring 6-9 ml cell culture medium to sterile 15 ml conical tubes, and by centrifuging the cell culture at 300×g for 7 minutes to pellet the cells (supernatant decanted).
7. The cells were resuspended in fresh cell culture medium and the cell counting was performed using a hemocytometer.
8. 100 μl of the resuspended cell culture medium containing ˜5,000 cells were transferred into each well of the sterile 96-well cell culture plate (Corning 3903) and cultured overnight at 37° C. with 5% CO2.
Compound Titration and Treatment
1. All test compounds were dissolved in DMSO (Dimethyl sulfoxide) to create a 20 mM stock.
2. 3 μl of each compound 20 mM stock was mixed with 27 μl DMSO, and the compound solution was further diluted at a titration ratio of 1:3 (20 μl compound solution+40 μl DMSO) till the 10 points end.
3. All culture medium was removed from assay plates filled with HT-29 cell cultures. The cells were then washed with 1 PBS, and resuspended in fresh, FBS-free McCOY's 5A medium containing a cocktail of TNF-α (10 ng/ml), a SMAC mimetic compound (6 μM) and Z-VAD-fluoromethylketone or zVAD-FMK (10 μM) to stimulate the HT-29 cells to increase RIP1 kinase levels and necroptosis.
4. 0.5 μL of the diluted compound solution was added to the corresponding 96-well assay plates.
5. The assay plates were incubated for 20 hours at 37° C. with 5% CO2.
1. The CellTiter-Glo® Luminescent Cell Viability Assay was employed to detect the ATP levels of viable HT-29 cells.
2. The CellTiter-Glo® buffer and the lyophilized substrate were equilibrated to room temperature prior to use.
3. The CellTiter-Glo® substrate was resuspended with CellTiter-Glo® buffer, then mixed by gently vortexing to obtain a homogeneous solution.
4. 20 μl the enzyme/substrate mixture was transferred by multi-channel pipetting into 96-well assay plates.
5. The assay plates were placed on an orbital shaker and the contents were shaken for 3 minutes to induce cell lysis.
6. The assay plates were incubated at room temperature for 10 minutes to stabilize the luminescent signal.
7. The luminescence signals were read and recorded with EnVision.
8. The geometric mean EC50 values were calculated from 10 points response dose with duplicates. In
Take `O=C(N1CCN(c2nccc(-c3cc[nH]n3)n2)CC1)N1N=CC[C@H]1c1ccccc1` [Compound 39, (S)-(4-(4-(1H-pyrazol-3-yl)pyrimidin-2-yl)piperazin-1-yl)(5-phenyl-4,5-dihydro-1H-pyrazol-1-yl)methanone]: the pEC50 was 7.00 to 10.00.

`Cc1nn(CCO)c(C)c1-c1nc(N2CCN(C(=O)N3N=CC[C@H]3c3cc(F)cc(F)c3)CC2)ncc1F` [Compound 118, (S)-(5-(3,5-difluorophenyl)-4,5-dihydro-1H-pyrazol-1-yl)(4-(5-fluoro-4-(1-(2-hydroxyethyl)-3,5-dimethyl-1H-pyrazol-4-yl)pyrimidin-2-yl)piperazin-1-yl)methanone]: the pEC50 was 7.00 to 10.00.

Regarding `Cc1cc(-c2nc(N3CCN(C(=O)N4N=CC[C@H]4c4ccccc4)CC3)ncc2F)n(C)n1` [Compound 85, (S)-(4-(4-(1,3-dimethyl-1H-pyrazol-5-yl)-5-fluoropyrimidin-2-yl)piperazin-1-yl)(5-phenyl-4,5-dihydro-1H-pyrazol-1-yl)methanone], the pEC50 is 7.00 to 10.00.

With `COC(=O)c1c[nH]c(-c2ccnc(N3CCN(C(=O)N4N=CC[C@H]4c4cc(F)cc(F)c4)CC3)n2)c1` [Compound 9, methyl (5)-5-(2-(4-(5-(3,5-difluorophenyl)-4,5-dihydro-1H-pyrazole-1-carbonyl)piperazin-1-yl)pyrimidin-4-yl)-1H-pyrrole-3-carboxylate], the pEC50 is 7.00 to 10.00.

For the compound `Cn1nncc1-c1nc(N2CCN(C(=O)N3N=CC[C@H]3c3cc(F)cc(C#N)c3)CC2)ncc1F` [Compound 41], the pEC50 is 7.00 to 10.00.

Take `O=C(N1CCN(c2ncc(F)c(-c3[nH]nnc3C(F)(F)F)n2)CC1)N1N=CC[C@H]1c1cc(F)cc(F)c1` [Compound 105, (S)-(5-(3,5-difluorophenyl)-4,5-dihydro-1H-pyrazol-1-yl)(4-(5-fluoro-4-(4-(trifluoromethyl)-1H-1,2,3-triazol-5-yl)pyrimidin-2-yl)piperazinyl)methanone]: the negative logarithm of the EC50 (pEC50) was 7.00 to 10.00.

`N#Cc1cc(F)cc([C@@H]2CC=NN2C(=O)N2CCN(c3ncc(F)c(-n4cc(C#N)cn4)n3)CC2)c1` [Compound 127, (S)-1-(2-(4-(5-(3-cyano-5-fluorophenyl)-4,5-dihydro-1H-pyrazole-1-carbonyl)piperazin-1-yl)-5-fluoropyrimidin-4-yl)-1H-pyrazole-4-carbonitrile]: the pEC50 was 7.00 to 10.00.

For `O=C(N1CCN(c2ccnc(-c3ccc[nH]3)n2)CC1)N1N=CC[C@H]1c1cc(F)cc(F)c1` [Compound 5, (S)-(4-(2-(1H-pyrrol-2-yl)pyrimidin-4-yl)piperazin-1-yl)(5-(3,5-difluorophenyl)-4,5-dihydro-1H-pyrazol-1-yl)methanone], the pEC50 is 7.00 to 10.00.

On to `Cc1cnn(C)c1-c1nc(N2CCN(C(=O)N3N=CC[C@H]3c3cc(F)cc(C#N)c3)CC2)ncc1F` [Compound 62, (S)-3-(1-(4-(4-(1,4-dimethyl-1H-pyrazol-5-yl)-5-fluoropyrimidin-2-yl)piperazine-1-carbonyl)-4,5-dihydro-1H-pyrazol-5-yl)-5-fluorobenzonitrile], for which the pEC50 is 7.00 to 10.00.

Turning to `Cc1nc(C#N)nn1-c1nc(N2CCN(C(=O)N3N=CC[C@H]3c3cc(F)cc(C#N)c3)CC2)ncc1F` [Compound 139, (S)-1-(2-(4-(5-(3-cyano-5-fluorophenyl)-4,5-dihydro-1H-pyrazole-1-carbonyl)piperazin-1-yl)-5-fluoropyrimidin-4-yl)-5-methyl-1H-1,2,4-triazole-3-carbonitrile], the pEC50 was 7.00 to 10.00.

Regarding `Cc1nnnn1-c1nc(N2CCN(C(=O)N3N=CC[C@H]3c3cc(F)cc(F)c3)CC2)ncc1F` [Compound 23, (S)-(5-(3,5-difluorophenyl)-4,5-dihydro-1H-pyrazol-1-yl)(4-(5-fluoro-4-(5-methyl-1H-tetrazol-1-yl)pyrimidin-2-yl)piperazin-1-yl)methanone], the pEC50 is 7.00 to 10.00.

For `Cc1[nH]nnc1-c1nc(N2CCN(C(=O)N3N=CC[C@H]3c3cc(F)cc(F)c3)CC2)ncc1F` [Compound 30, (S)-(5-(3,5-difluorophenyl)-4,5-dihydro-1H-pyrazol-1-yl)(4-(5-fluoro-4-(5-methyl-1H-1,2,3-triazol-4-yl)pyrimidin-2-yl)piperazin-1-yl)methanone], the pEC50 is 7.00 to 10.00.

For the compound `N#Cc1cc(F)cc([C@@H]2CC=NN2C(=O)N2CCN(c3ncc(F)c(-c4cc[nH]n4)n3)CC2)c1` [Compound 22, (S)-3-fluoro-5-(1-(4-(5-fluoro-4-(1H-pyrazol-3-yl)pyrimidin-2-yl)piperazine-1-carbonyl)-4,5-dihydro-1H-pyrazol-5-yl)benzonitrile], the pEC50 was 7.00 to 10.00.

The same experiment, now with this note: Homo sapiens; HT-29 cells, TNF-α 10 ng/ml + SMAC mimetic 6 μM + zVAD-FMK 10 μM, 20 hours; geometric mean, 10 points in duplicate; read-out: EC50 (Cell activity; Necrosis/Necroptosis Inhibitory Activity, Compounds 143-323).
On to `Cc1c(-c2nc(N3CCN(C(=O)N4N=CC[C@H]4c4cc(F)cc(F)c4)CC3)ncc2F)c(C(F)(F)F)nn1C` [Compound 198, (S)-(5-(3,5-difluorophenyl)-4,5-dihydro-1H-pyrazol-1-yl)(4-(4-(1,5-dimethyl-3-(trifluoromethyl)-1H-pyrazol-4-yl)-5-fluoropyrimidin-2-yl)piperazin-1-yl)methanone], for which the pEC50 is 7.00 to 10.00.

On to `Cc1nn(-c2cc(N3CCN(C(=O)N4N=CC[C@H]4c4cc(F)cc(C#N)c4)CC3)ncn2)c(C)c1C(N)=O` [Compound 282, (S)-1-(6-(4-(5-(3-cyano-5-fluorophenyl)-4,5-dihydro-1H-pyrazole-1-carbonyl)piperazin-1-yl)pyrimidin-4-yl)-3,5-dimethyl-1H-pyrazole-4-carboxamide], for which the pEC50 is 7.00 to 10.00.

Turning to `Cc1nn(-c2ccnc(N3CCN(C(=O)N4N=CC[C@H]4c4cncc(F)c4)CC3)n2)c(C)c1C#N` [Compound 283, (S)-1-(2-(4-(5-(5-fluoropyridin-3-yl)-4,5-dihydro-1H-pyrazole-1-carbonyl)piperazin-1-yl)pyrimidin-4-yl)-3,5-dimethyl-1H-pyrazole-4-carbonitrile], the pEC50 was 7.00 to 10.00.

On to `Cc1nc(C)n(-c2nc(N3CCN(C(=O)N4N=CCC4c4cnc(C)s4)CC3)ncc2Cl)n1` (stereo not shown) [Compound 223, (4-(5-chloro-4-(3,5-dimethyl-1H-1,2,4-triazol-1-yl)pyrimidin-2-yl)piperazin-1-yl)(5-(2-methylthiazol-5-yl)-4,5-dihydro-1H-pyrazol-1-yl)methanone], for which the pEC50 was 7.00 to 10.00.

Regarding `Cc1ncc(C2CC=NN2C(=O)N2CCN(c3nc(-c4c(C)cnn4C)ccc3F)CC2)s1` (stereo not shown) [Compound 270, (4-(6-(1,4-dimethyl-1H-pyrazol-5-yl)-3-fluoropyridin-2-yl)piperazin-1-yl)(5-(2-methylthiazol-5-yl)-4,5-dihydro-1H-pyrazol-1-yl)methanone], the pEC50 was 7.00 to 10.00.

In the case of `Cc1cnc(C2CC=NN2C(=O)N2CCN(c3ncc(F)c(-c4cnn(C)n4)n3)CC2)s1` (stereo not shown) [Compound 317, (4-(5-fluoro-4-(2-methyl-2H-1,2,3-triazol-4-yl)pyrimidin-2-yl)piperazin-1-yl)(5-(5-methylthiazol-2-yl)-4,5-dihydro-1H-pyrazol-1-yl)methanone], the pEC50 is 6.00 to 7.00.
